Reference: ChEMBL document CHEMBL1150206, “Verrucoside, a new cytotoxic pregnane glycoside from a gorgonian Eunicella verrucosa” (J Nat Prod, 1991)
In brackets after ≈: the same amount, converted by molar mass.

Key:
Format in all cases: functional, cell-based
P388 = experiment: Cytotoxicity against mouse P388 cells
A549 = experiment: Cytotoxicity against human A549 cells
HT-29 = experiment: Cytotoxicity against human HT-29 cells

In the case of `C=C[C@H]1CC[C@H]2[C@@H]3CC[C@@H]4[C@@H](O[C@@H]5O[C@@H](C)[C@@H](O)[C@@H](OC)[C@@H]5OC(C)=O)[C@@H](O)CC[C@]4(C)[C@H]3CC[C@]12C` [VERRUCOSIDE], the IC50 (P388) is reported as 5.9 µg/mL (≈ 11.3 µM), the IC50 (A549) is reported as 7.2 µg/mL (≈ 13.8 µM) and the IC50 (HT-29) is reported as 6.3 µg/mL (≈ 12.1 µM).
